Laboratory results as given in ChEMBL document CHEMBL1201862, “PubChem BioAssay data set” (2004).
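Compound exposure: 48 hours, 5 concentrations, 96-well plates. Here, GI50 denotes the concentration required for 50% inhibition of growth.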 The source made the active and inactive calls. Rule as the data show it: active = GI50 up to about 1.1 µM and inactive = higher.

Columns and labels:
Assay in all cases: inhibition of tumour cell growth, NCI panel, 48 h
[1] = tested on: MOLT-4
[2] = tested on: COLO 205
[3] = tested on: RPMI-8226
[4] = tested on: TK-10
[5] = tested on: MCF7
[6] = tested on: UO-31
[7] = tested on: NCI-H226
[8] = tested on: PC-3
[9] = tested on: A549
[10] = tested on: SNB-19
[11] = tested on: ACHN
[12] = tested on: RXF 393
[13] = tested on: LOX IMVI
[14] = tested on: SR
[15] = tested on: DU-145
[16] = tested on: MDA-N
[17] = tested on: SNB-75
[18] = tested on: MDA-MB-435
[19] = tested on: T47D
[20] = tested on: Malme-3M
[21] = tested on: NCI/ADR-RES
[22] = tested on: MDA-MB-231
[23] = tested on: NCI-H522
[24] = tested on: HOP-92
[25] = tested on: HCT-15
[26] = tested on: SF-295
[27] = tested on: M14
[28] = tested on: U-251
[29] = tested on: HL-60
[30] = tested on: SK-MEL-5
[31] = tested on: OVCAR-4
[32] = tested on: HOP-62
[33] = tested on: NCI-H460
[34] = tested on: SK-MEL-28
[35] = tested on: BT-549
[36] = tested on: SW-620
[37] = tested on: IGROV-1
[38] = tested on: 786-0
[39] = tested on: NCI-H23
[40] = tested on: HCC 2998
[41] = tested on: OVCAR-5
[42] = tested on: SN12C
[43] = tested on: SK-MEL-2
[44] = tested on: KM12
[45] = tested on: HCT-116
[46] = tested on: K562
[47] = tested on: UACC-62
[48] = tested on: Hs-578T
[49] = tested on: CCRF-CEM
[50] = tested on: EKVX
[51] = tested on: SK-OV-3
[52] = tested on: OVCAR-3
[53] = tested on: OVCAR-8
[54] = tested on: HT-29
[55] = tested on: SF-539
[56] = tested on: CAKI-1
[57] = tested on: SF-268
[58] = tested on: UACC-257

CCCCc1ccc(-n2sc3ncc(C)cc3c2=O)cc1
GI50 [1]: 25.2 µM (inactive) | GI50 [2]: 20.5 µM (inactive) | GI50 [3]: 22 µM (inactive) | GI50 [4]: 29.1 µM (inactive) | GI50 [5]: 19.5 µM (inactive) | GI50 [6]: 6.1 µM (inactive) | GI50 [7]: > 100 µM (inactive) | GI50 [8]: 15 µM (inactive) | GI50 [9]: 20.6 µM (inactive) | GI50 [10]: > 100 µM (inactive) | GI50 [11]: 30.9 µM (inactive) | GI50 [12]: 27.2 µM (inactive) | GI50 [13]: 18.2 µM (inactive) | GI50 [14]: 75.5 µM (inactive) | GI50 [15]: 30.3 µM (inactive) | GI50 [16]: 51.5 µM (inactive) | GI50 [17]: 42.9 µM (inactive) | GI50 [18]: 79.8 µM (inactive) | GI50 [19]: 22.6 µM (inactive) | GI50 [20]: 25.8 µM (inactive) | GI50 [21]: 27.6 µM (inactive) | GI50 [22]: 25.6 µM (inactive) | GI50 [23]: 16.3 µM (inactive) | GI50 [24]: 26.8 µM (inactive) | GI50 [25]: 16.4 µM | GI50 [26]: 45.2 µM (inactive) | GI50 [27]: 13.4 µM (inactive) | GI50 [28]: 32.7 µM (inactive) | GI50 [29]: 8.57 µM (inactive) | GI50 [30]: 21.5 µM (inactive) | GI50 [31]: 33.7 µM (inactive) | GI50 [32]: 30.3 µM (inactive) | GI50 [33]: 12.6 µM (inactive) | GI50 [34]: 96.2 µM (inactive) | GI50 [35]: 19.1 µM (inactive) | GI50 [36]: 27.4 µM (inactive) | GI50 [37]: 21.7 µM (inactive) | GI50 [38]: 34.9 µM (inactive) | GI50 [39]: 30.1 µM (inactive) | GI50 [40]: 37.5 µM (inactive) | GI50 [41]: 22.7 µM (inactive) | GI50 [42]: 21.9 µM (inactive) | GI50 [43]: 10.6 µM (inactive) | GI50 [44]: 22.7 µM (inactive) | GI50 [45]: 78 µM (inactive) | GI50 [46]: 43.9 µM (inactive) | GI50 [47]: 32.4 µM (inactive) | GI50 [48]: > 100 µM (inactive) | GI50 [49]: 8.18 µM (inactive) | GI50 [50]: 19.5 µM (inactive) | GI50 [51]: 28.6 µM (inactive) | GI50 [52]: 18.5 µM (inactive) | GI50 [53]: 21 µM (inactive)

CC(=O)OCc1ccc(O)c(C=O)c1
GI50 [1]: 38.3 µM (inactive) | GI50 [2]: > 100 µM (inactive) | GI50 [3]: > 100 µM (inactive) | GI50 [4]: > 100 µM (inactive) | GI50 [5]: 37.9 µM (inactive) | GI50 [54]: > 100 µM (inactive) | GI50 [6]: 56.8 µM (inactive) | GI50 [7]: > 100 µM (inactive) | GI50 [8]: 88.9 µM (inactive) | GI50 [9]: > 100 µM (inactive) | GI50 [10]: 92.3 µM (inactive) | GI50 [11]: > 100 µM (inactive) | GI50 [12]: > 100 µM (inactive) | GI50 [13]: > 100 µM (inactive) | GI50 [14]: 60.3 µM (inactive) | GI50 [15]: > 100 µM (inactive) | GI50 [16]: 64.6 µM (inactive) | GI50 [17]: > 100 µM (inactive) | GI50 [55]: > 100 µM (inactive) | GI50 [18]: > 100 µM (inactive) | GI50 [19]: 51.3 µM (inactive) | GI50 [20]: > 100 µM (inactive) | GI50 [21]: > 100 µM (inactive) | GI50 [22]: > 100 µM (inactive) | GI50 [23]: > 100 µM (inactive) | GI50 [24]: 43.3 µM (inactive) | GI50 [25]: 46.5 µM | GI50 [26]: > 100 µM (inactive) | GI50 [27]: 25.2 µM (inactive) | GI50 [28]: 74.8 µM (inactive) | GI50 [29]: 39.6 µM (inactive) | GI50 [30]: > 100 µM (inactive) | GI50 [31]: > 100 µM (inactive) | GI50 [32]: > 100 µM (inactive) | GI50 [33]: > 100 µM (inactive) | GI50 [34]: > 100 µM (inactive) | GI50 [56]: > 100 µM (inactive) | GI50 [35]: > 100 µM (inactive) | GI50 [57]: 64.9 µM (inactive) | GI50 [36]: > 100 µM (inactive) | GI50 [58]: > 100 µM (inactive) | GI50 [37]: > 100 µM (inactive) | GI50 [38]: > 100 µM (inactive) | GI50 [39]: > 100 µM (inactive) | GI50 [40]: > 100 µM (inactive) | GI50 [41]: > 100 µM (inactive) | GI50 [42]: 84.3 µM (inactive) | GI50 [43]: > 100 µM (inactive) | GI50 [44]: > 100 µM (inactive) | GI50 [45]: 40.4 µM (inactive) | GI50 [46]: 73.6 µM (inactive) | GI50 [47]: 71.3 µM (inactive) | GI50 [48]: > 100 µM (inactive) | GI50 [49]: 46.3 µM (inactive) | GI50 [50]: 28.4 µM (inactive) | GI50 [51]: > 100 µM (inactive) | GI50 [52]: > 100 µM (inactive) | GI50 [53]: 96.2 µM (inactive)

COc1cccc(C(=O)Nc2c3ccccc3nc3ccccc23)c1OC
GI50 [1]: > 100 µM (inactive) | GI50 [2]: > 100 µM (inactive) | GI50 [3]: > 100 µM (inactive) | GI50 [4]: > 100 µM (inactive) | GI50 [5]: > 100 µM (inactive) | GI50 [54]: > 100 µM (inactive) | GI50 [6]: 2.96 µM (inactive) | GI50 [7]: > 100 µM (inactive) | GI50 [8]: > 100 µM (inactive) | GI50 [9]: 84.9 µM (inactive) | GI50 [10]: 62.2 µM (inactive) | GI50 [11]: 45.5 µM (inactive) | GI50 [12]: 23.4 µM (inactive) | GI50 [13]: > 100 µM (inactive) | GI50 [14]: > 100 µM (inactive) | GI50 [15]: > 100 µM (inactive) | GI50 [16]: > 100 µM (inactive) | GI50 [17]: 17.5 µM (inactive) | GI50 [55]: > 100 µM (inactive) | GI50 [18]: > 100 µM (inactive) | GI50 [19]: > 100 µM (inactive) | GI50 [20]: > 100 µM (inactive) | GI50 [21]: > 100 µM (inactive) | GI50 [22]: > 100 µM (inactive) | GI50 [23]: 29.2 µM (inactive) | GI50 [25]: > 100 µM | GI50 [26]: 39.1 µM (inactive) | GI50 [27]: > 100 µM (inactive) | GI50 [28]: > 100 µM (inactive) | GI50 [29]: > 100 µM (inactive) | GI50 [30]: 29.2 µM (inactive) | GI50 [31]: > 100 µM (inactive) | GI50 [32]: 45.7 µM (inactive) | GI50 [33]: 76.2 µM (inactive) | GI50 [34]: > 100 µM (inactive) | GI50 [56]: > 100 µM (inactive) | GI50 [35]: > 100 µM (inactive) | GI50 [57]: 74.1 µM (inactive) | GI50 [36]: > 100 µM (inactive) | GI50 [58]: > 100 µM (inactive) | GI50 [37]: > 100 µM (inactive) | GI50 [38]: 52.2 µM (inactive) | GI50 [39]: > 100 µM (inactive) | GI50 [40]: > 100 µM (inactive) | GI50 [41]: > 100 µM (inactive) | GI50 [42]: > 100 µM (inactive) | GI50 [43]: > 100 µM (inactive) | GI50 [44]: > 100 µM (inactive) | GI50 [45]: > 100 µM (inactive) | GI50 [46]: > 100 µM (inactive) | GI50 [47]: > 100 µM (inactive) | GI50 [48]: 36.8 µM (inactive) | GI50 [49]: > 100 µM (inactive) | GI50 [50]: > 100 µM (inactive) | GI50 [51]: 51.9 µM (inactive) | GI50 [52]: > 100 µM (inactive) | GI50 [53]: 88.9 µM (inactive)
